Data reported in patent US20250382331A1, “Carrier Peptide Fragment and Use Thereof” (TOAGOSEI CO., LTD., priority 2022, published 2025).
Primed or numbered codes have the meaning given here. FAM = 5(6)-carboxyfluorescein; FAM″ = C-terminal FAM dye

System: NSC-34 cells
Test: Evaluation on cell membrane permeability by flow cytometry
Format: cell-based, mouse
Conditions: 10 μM construct (additive), 0.5% DMSO, 20 hours incubation, flow cytometer FL2
Experimental: As the eukaryotic cells, NSC-34 cells (mouse motor neuron-like hybrid cell line) were used and the cell membrane permeability of the constructs 1 to 4 was analyzed. In Examples 1 to 4, the prepared samples 1 to 4 were used, respectively, and in Example 5, a FAM solution was used.
The NSC-34 cells were cultured in 10% fetal bovine serum (FBS)-containing Dulbecco's modified Eagle's medium (DMEM (Cat No. 044-29765, manufactured by FUJIFILM Wako Pure Chemical Corporation)), which is a normal culture medium.
The NSC-34 cells that adhered to a culture plate were cleaned with PBS and then, a 0.25%-trypsin/EDTA solution was added thereto, and incubation was performed for three minutes at 37° C. After the incubation, the aforementioned 10% FBS-containing DMEM was added to deactivate trypsin and then, five-minute centrifugal separation was performed at 150×g to precipitate the cells. After the supernatant generated by the centrifugal separation was removed, the 10% FBS-containing DMEM was added to the precipitate (cell pellet) to prepare a cell suspension of about 2×10^5 cells/mL. The cell suspension was added by 1 mL to a well of a commercially available six-hole (well) plate (manufactured by AGC TECHNO GLASS Co., Ltd.) so as to seed the cell (about 2×10^5 cells/well). In addition, the 2 mM sample solution 1 was diluted with the 10% FBS-containing DMEM to prepare the sample solution 1 in which the concentration of the sample 1 was 20 μM. Then, 1 mL of the 20 μM sample solution 1 was added to the well (that is, so that the concentration of the sample 1 became 10 μM and the DMSO concentration became 0.5% in the culture solution in the well). After that, the cell was incubated for 20 hours at 37° C. under a 5% CO2 condition.
After the 20-hour incubation, the culture supernatant was removed from the well and the cells in the well were cleaned twice with 1 mL of PBS. Next, 200 μL of the 0.25% trypsin/EDTA solution was added to the well and the incubation was performed for three minutes at 37° C. After the incubation, 400 μL of the 10% FBS-containing DMEM was added to the well to deactivate the trypsin. Subsequently, the cell suspension in the well was transferred to a tube and the cells were collected. After that, 600 μL of PBS was added further to the well to clean the well. Then, PBS in the well was transferred to the tube, so that the cells remaining in the well were collected in the tube. This tube was subjected to five-minute centrifugal separation at 4° C. under a condition of 210×g. After the centrifugal separation, the supernatant was removed and the precipitate (cell pellet) was suspended (cleaned) with 1 mL of PBS, which was followed by the centrifugal separation under the same condition as that described above. After this operation was repeated twice, the supernatant was removed and thus, the cells (cell pellet) cultured in a culture medium containing the sample 1 were obtained.
Regarding the obtained cells (cell pellet), the cell membrane permeability of the sample 1 was analyzed using a flow cytometer. […]
Using the aforementioned flow cytometer, gating based on forward scatter (FSC) and side scatter (SSC) was performed to set a gate about a cell group to be analyzed, and the fluorescence intensity was measured about the cell group in this gate. […] The fluorescence intensity was measured using a fluorescence detector FL2 of the flow cytometer (optimum detection wavelength around 543 nm) capable of detecting the fluorescence wavelength of FAM. […]

Substance | MFI (median fluorescence intensity)
5(6)-carboxyfluorescein [Example 5, reference compound] | 8.15
Ac-KKRTLRKNSNRKKR-FAM (Ac-KKRTLRKNSNRKKR-{FAM}) [Example 4] | 16.7
Ac-KKRTLRKSNNRKKR-FAM (Ac-KKRTLRKSNNRKKR-{FAM}) [Example 3] | 13.6
Ac-KKRTLRKSNSRKKR-FAM (Ac-KKRTLRKSNSRKKR-{FAM″}) [Example 1] | 11.2
Ac-KKRTLRKSSNRKKR-FAM (Ac-KKRTLRKSSNRKKR-{FAM″}) [Example 2] | 12.9
